Results on 29 molecules are retold here after patent publication US10647718B2, “Compounds and use thereof in the expansion of hematopoietic stem cells and/or hematopoietic progenitor cells” (UNIVERSITÉ DE MONTRÉAL, priority 2014, dated 2020).

A value given as a limit tells only on which side of the number the result lay.

The first experiment relates to CD34+CD45RA− cell. The experiment can be described thus: Hematopoietic stem cell expansion assay (CD34+CD45RA− cell count versus DMSO vehicle cultures). The class given is cell-based. The following applies: Homo sapiens, concentration that results in a 50% increase in CD34+CD45RA− cell count compared to vehicle cultures (DMSO), Table 1, pyridopyrrolopyrimidine series, read-out: Biological data EC50. The method, then:
As used herein, the term “EC50” is intended to mean the concentration that results in a 50% increase in CD34+CD45RA− cell count compared to vehicle cultures (DMSO).
Screening Assay: screening assays were conducted as described in the inventors' previous patent application, WO 2013/110198.
The following biological assays were used to assess the effect of the compounds of the invention on hematopoietic stem cell expansion The results are illustrated in FIGS. 1 to 6. Culture medium: The culture medium used consisted of serum-free medium supplemented with the following recombinant cytokines: interleukin-6, thrombopoietin, Flt-3 ligand, and stem cell factor, each at a final concentration of 100 ng/ml, in the presence of vehicle (DMSO), positive control (SR1), or compound of the invention or a combination of compounds. Cell Culture: CD34+ cell purity of initial harvests was higher than 90%, as determined by flow cytometry. The CD34+ CD45RA− subpopulation reached purity levels higher than 70%. Cells were plated at 40,000 cells/ml and incubated for 7 to 12-days at 37° C. in 5% CO2. For long term cultures, 200,000 CD34+cells/ml from mobilized PB were plated with serum free media supplemented with interleukin-6, thrombopoietin, Flt3 ligand, and stem cell factor, each at a final concentration of 100 ng/ml, in the presence of vehicle (DMSO), positive control, or a compound of the invention at 500 nM.
As to `COC(=O)c1cnc2c(c1)[nH]c1nc(Cc3cccc(F)c3)nc(NCCCN(C)CCCN)c12` [Compound 12, methyl 4-((3-((3-aminopropyl)(methyl)amino)propyl)amino)-2-(3-fluorobenzyl)-9H-pyrido[2′,3′:4,5]pyrrolo[2,3-d]pyrimidine-7-carboxylate], the EC50 fell in the range of 250 to 500 nM.

As for `COC(=O)c1cnc2c(c1)[nH]c1nc(Cc3ccccc3)nc(N(C)CCCN3CCCCC3)c12` [Compound 6, methyl 2-benzyl-4-(methyl(3-(piperidin-1-yl)propyl)amino)-9H-pyrido[2′,3′:4,5]pyrrolo[2,3-d]pyrimidine-7-carboxylate], the EC50 was under 100 nM.

`CNCCCNc1nc(Cc2cccc(F)c2)nc2[nH]c3cc(C(=O)OC)cnc3c12` [Compound 13]: the EC50 is over 1000 nM.

`COC(=O)c1cnc2c(c1)[nH]c1nc(Cc3cccc(F)c3)nc(NCCCN3CCCCC3)c12` [Compound 11, methyl 2-(3-fluorobenzyl)-4-((3-(piperidin-1-yl)propyl)amino)-9H-pyrido[2′,3′:4,5]pyrrolo[2,3-d]pyrimidine-7-carboxylate]: the EC50 was over 1000 nM.

As to `CCN(CC)CCN(CC)c1nc(Cc2ccccc2)nc2[nH]c3cc(C(=O)OC)cnc3c12` [Compound 16, methyl 2-benzyl-4-((2-(diethylamino)ethyl)(ethyl)amino)-9H-pyrido[2′,3′:4,5]pyrrolo[2,3-d]pyrimidine-7-carboxylate], the EC50 was 250 to 500 nM.

As to `COC(=O)c1cnc2c(c1)[nH]c1nc(Cc3ccccc3)nc(NCCCN3CCCCC3)c12` [Compound 1, methyl 2-benzyl-4-((3-(piperidin-1-yl)propyl)amino)-9H-pyrido[2′,3′:4,5]pyrrolo[2,3-d]pyrimidine-7-carboxylate], the EC50 is 250 to 500 nM.

Take `COC(=O)c1cnc2c(c1)[nH]c1nc(Cc3ccccc3C)nc(NCCCN3CCCCC3)c12` [Compound 7, methyl 2-(2-methylbenzyl)-4-((3-(piperidin-1-yl)propyl)amino)-9H-pyrido[2′,3′:4,5]pyrrolo[2,3-d]pyrimidine-7-carboxylate]: the EC50 was 250 to 500 nM.

Consider `COC(=O)c1cnc2c(c1)[nH]c1nc(Cc3ccsc3)nc(NCCCN3CCCCC3)c12` [Compound 2, methyl 4-((3-(piperidin-1-yl)propyl)amino)-2-(thiophen-3-ylmethyl)-9H-pyrido[2′,3′:4,5]pyrrolo[2,3-d]pyrimidine-7-carboxylate], for which the EC50 lay in the range of 250 to 500 nM.

For the molecule `COC(=O)c1cnc2c(c1)[nH]c1nc(Cc3ccsc3)nc(SCCCN3CCCCC3)c12` [Compound 3, methyl 4-((3-(piperidin-1-yl)propyl)thio)-2-(thiophen-3-ylmethyl)-9H-pyrido[2′,3′:4,5]pyrrolo[2,3-d]pyrimidine-7-carboxylate], the EC50 fell in the range of 500 to 1000 nM.

On to `Cn1nnc(-c2cnc3c(c2)[nH]c2nc(Cc4ccccc4)nc(N[C@H]4CC[C@H](N)CC4)c23)n1` [Compound 10, (1R,4R)—N^1-(2-benzyl-7-(2-methyl-2H-tetrazol-5-yl)-9H-pyrido[2′,3′:4,5]pyrrolo[2,3-d]pyrimidin-4-yl)cyclohexane-1,4-diamine], for which the EC50 fell in the range of 250 to 500 nM.

With `COC(=O)c1cnc2c(c1)[nH]c1nc(Cc3ccccc3)nc(N3CCC(N(C)C)CC3)c12` [Compound 15, methyl 2-benzyl-4-(4-(dimethylamino)piperidin-1-yl)-9H-pyrido[2′,3′:4,5]pyrrolo[2,3-d]pyrimidine-7-carboxylate], the EC50 was in the range of 100 to 250 nM.

With `CNCCCNc1nc(Cc2ccccc2C)nc2[nH]c3cc(C(=O)OC)cnc3c12` [Compound 9, methyl 4-((3-(methylamino)propyl)amino)-2-(2-methylbenzyl)-9H-pyrido[2′,3′:4,5]pyrrolo[2,3-d]pyrimidine-7-carboxylate], the EC50 is 500 to 1000 nM.

As for `COC(=O)c1cnc2c(c1)[nH]c1nc(Cc3ccccc3C)nc(NCCCN3CCCC3)c12` [Compound 8, methyl 2-(2-methylbenzyl)-4-((3-(pyrrolidin-1-yl)propyl)amino)-9H-pyrido[2′,3′:4,5]pyrrolo[2,3-d]pyrimidine-7-carboxylate], the EC50 was 250 to 500 nM.

With `CCN(CC)CCNc1nc(Cc2cccc(OC)c2)nc2[nH]c3cc(C(=O)OC)cnc3c12` [Compound 5, methyl 4-((2-(diethylamino)ethyl)amino)-2-(3-methoxybenzyl)-9H-pyrido[2′,3′:4,5]pyrrolo[2,3-d]pyrimidine-7-carboxylate], the EC50 was 500 to 1000 nM.

Take `COC(=O)c1cnc2c(c1)[nH]c1nc(Cc3cccc(OC)c3)nc(NCCCN3CCCCC3C)c12` (centres unmarked) [Compound 4, methyl 2-(3-methoxybenzyl)-4-((3-(2-methylpiperidin-1-yl)propyl)amino)-9H-pyrido[2′,3′:4,5]pyrrolo[2,3-d]pyrimidine-7-carboxylate]: the EC50 lay in the range of 250 to 500 nM.

The experiment is the same for the next values; noted with them: Homo sapiens, concentration that results in a 50% increase in CD34+CD45RA− cell count compared to vehicle cultures (DMSO), Table 1′, pyrido[4,3-b]indole series, read-out: Biological data EC50.
`COC(=O)c1ccc2c(c1)[nH]c1cc(Cc3ccccc3)nc(NCCN3CCCC3)c12` [3′, methyl 3-benzyl-1-((2-(pyrrolidin-1-yl)ethyl)amino)-5H-pyrido[4,3-b]indole-7-carboxylate]: the EC50 is under 100 nM.

For the molecule `COC(=O)c1ccc2c(c1)[nH]c1cc(Cc3cccc(O)c3)nc(NCCCCN3CCCC3)c12` [7′, methyl 3-(3-hydroxybenzyl)-1-((4-(pyrrolidin-1-yl)butyl)amino)-5H-pyrido[4,3-b]indole-7-carboxylate], the EC50 is under 100 nM.

Turning to `COC(=O)c1ccc2c(c1)[nH]c1cc(Cc3cccnc3)nc(NCCCN3CCOCC3)c12` [9′, methyl 1-((3-morpholinopropyl)amino)-3-(pyridin-3-ylmethyl)-5H-pyrido[4,3-b]indole-7-carboxylate], the EC50 lay in the range of 500 to 1000 nM.

For `CNCCCN(C)c1nc(Cc2cccnc2)cc2[nH]c3cc(C(=O)OC)ccc3c12` [12′, methyl 1-(methyl(3-(methylamino)propyl)amino)-3-(pyridin-3-ylmethyl)-5H-pyrido[4,3-b]indole-7-carboxylate], the EC50 was over 1000 nM.

On to `COC(=O)c1ccc2c(c1)[nH]c1cc(Cc3ccsc3)nc(N[C@H]3CC[C@H](N)CC3)c12` [13′, methyl 1-(((1r,4r)-4-aminocyclohexyl)amino)-3-(thiophen-3-ylmethyl)-5H-pyrido[4,3-b]indole-7-carboxylate], for which the EC50 lay within 100 to 250 nM.

For `COC(=O)c1ccc2c(c1)[nH]c1cc(Cc3ccccc3)nc(N(C)CCCN(C)C)c12` [4′, methyl 3-benzyl-1-((3-(dimethylamino)propyl)(methyl)amino)-5H-pyrido[4,3-b]indole-7-carboxylate], the EC50 is under 100 nM.

In the case of `COC(=O)c1ccc2c(c1)[nH]c1ccnc(NCCCN3CCCCC3)c12` [1′, methyl 1-((3-(piperidin-1-yl)propyl)amino)-5H-pyrido[4,3-b]indole-7-carboxylate], the EC50 is over 1000 nM.

For the molecule `COC(=O)c1ccc2c(c1)[nH]c1cc(Cc3ccsc3)nc(NCCC[N+]3(CC(N)=O)CCCCC3)c12` [15′, 1-(2-amino-2-oxoethyl)-1-(3-((7-(methoxycarbonyl)-3-(thiophen-3-ylmethyl)-5H-pyrido[4,3-b]indol-1-yl)amino)propyl)piperidin-1-ium iodide], the EC50 is under 100 nM.

As to `COC(=O)c1ccc2c(c1)[nH]c1cc(Cc3ccccc3)nc(NCCCN3CCCCC3)c12` [2′, methyl 3-benzyl-1-((3-(piperidin-1-yl)propyl)amino)-5H-pyrido[4,3-b]indole-7-carboxylate], the EC50 was under 100 nM.

Take `COC(=O)c1ccc2c(c1)[nH]c1cc(Cc3cccnc3)nc(N3CCC(N4CCCC4)CC3)c12` [11′, methyl 3-(pyridin-3-ylmethyl)-1-(4-(pyrrolidin-1-yl)piperidin-1-yl)-5H-pyrido[4,3-b]indole-7-carboxylate]: the EC50 is over 1000 nM.

In the case of `COC(=O)c1ccc2c(c1)[nH]c1cc(Cc3ccsc3)nc(NCCN(C)CCN)c12` [14′, methyl 1-((2-((2-aminoethyl)(methyl)amino)ethyl)amino)-3-(thiophen-3-ylmethyl)-5H-pyrido[4,3-b]indole-7-carboxylate], the EC50 lay within 250 to 500 nM.

Regarding `COC(=O)c1ccc2c(c1)[nH]c1cc(Cc3ccsc3)nc(NCCN(C)CCNC(=O)OC(C)(C)C)c12` [8′, methyl 1-((2-((2-((tert-butoxycarbonyl)amino)ethyl)(methyl)amino)ethyl)amino)-3-(thiophen-3-ylmethyl)-5H-pyrido[4,3-b]indole-7-carboxylate], the EC50 was over 1000 nM.

With `Cn1nnc(-c2ccc3c(c2)[nH]c2cc(Cc4ccccc4)nc(NCCCN4CCCCC4)c23)n1` [5′, 3-benzyl-7-(2-methyl-2H-tetrazol-5-yl)-N-(3-(piperidin-1-yl)propyl)-5H-pyrido[4,3-b]indol-1-amine], the EC50 was in the range of 100 to 250 nM.

Take `COC(=O)c1ccc2c(c1)[nH]c1cc(Cc3cccc(OC)c3)nc(NCCCCN3CCCC3)c12` [6′, methyl 3-(3-methoxybenzyl)-1-((4-(pyrrolidin-1-yl)butyl)amino)-5H-pyrido[4,3-b]indole-7-carboxylate]: the EC50 was under 100 nM.
